Measured values from the NIST ThermoML archive (doi:10.1016/j.fluid.2016.07.034).

Test: molar heat capacity at constant pressure
Conditions: Flow calorimetry

CCF [fluoroethane]
Conditions	molar heat capacity at constant pressure [J/K/mol]
303.42 K, 1340 kPa, Liquid	107.27
303.47 K, 1930 kPa, Liquid	106.74
303.48 K, 6470 kPa, Liquid	102.68
303.49 K, 9530 kPa, Liquid	100.86
303.5 K, 2520 kPa, Liquid	106.24
303.5 K, 8030 kPa, Liquid	101.83
303.5 K, 10100 kPa, Liquid	100.8
303.51 K, 7100 kPa, Liquid	102.32
303.51 K, 11050 kPa, Liquid	100.2
303.52 K, 5200 kPa, Liquid	103.84
303.52 K, 8440 kPa, Liquid	101.93
303.52 K, 10520 kPa, Liquid	100.64
303.52 K, 11560 kPa, Liquid	100.42
303.53 K, 3000 kPa, Liquid	106.02
303.53 K, 5540 kPa, Liquid	103.57
303.53 K, 5980 kPa, Liquid	103.24
303.53 K, 7520 kPa, Liquid	102.26
303.53 K, 9130 kPa, Liquid	101.37
303.54 K, 12050 kPa, Liquid	100.01
303.55 K, 3510 kPa, Liquid	105.63
303.55 K, 4550 kPa, Liquid	104.88
303.57 K, 4010 kPa, Liquid	105.42
313.31 K, 2010 kPa, Liquid	110.61
313.33 K, 3080 kPa, Liquid	109.26
313.35 K, 2560 kPa, Liquid	110.04
313.35 K, 3500 kPa, Liquid	108.56
313.36 K, 4000 kPa, Liquid	108.09
313.37 K, 4510 kPa, Liquid	107.49
313.37 K, 7030 kPa, Liquid	104.99
313.38 K, 8490 kPa, Liquid	103.71
313.38 K, 9510 kPa, Liquid	102.92
313.39 K, 5070 kPa, Liquid	107.08
313.39 K, 7490 kPa, Liquid	104.67
313.4 K, 9090 kPa, Liquid	103.61
313.4 K, 10010 kPa, Liquid	102.8
313.41 K, 1510 kPa, Liquid	112.39
313.41 K, 6080 kPa, Liquid	106.37
313.42 K, 5490 kPa, Liquid	106.99
313.42 K, 7980 kPa, Liquid	104.69
313.42 K, 10490 kPa, Liquid	102.75
313.43 K, 6510 kPa, Liquid	106.03
313.43 K, 10980 kPa, Liquid	102.52
313.47 K, 11470 kPa, Liquid	102.55
315.33 K, 1020 kPa, Gas	77.84
315.39 K, 1110 kPa, Gas	80.21
315.56 K, 1220 kPa, Gas	83.09
324.11 K, 2050 kPa, Liquid	115.84
324.13 K, 2570 kPa, Liquid	114.7
324.13 K, 8110 kPa, Liquid	105.47
324.14 K, 5980 kPa, Liquid	108.6
324.15 K, 3000 kPa, Liquid	113.84
324.15 K, 8550 kPa, Liquid	105.2
324.16 K, 4060 kPa, Liquid	111.82
324.16 K, 6470 kPa, Liquid	107.92
324.16 K, 7520 kPa, Liquid	106.39
324.17 K, 5510 kPa, Liquid	109.38
324.17 K, 10040 kPa, Liquid	103.35
324.18 K, 3500 kPa, Liquid	113.06
324.18 K, 4510 kPa, Liquid	111.09
324.19 K, 7020 kPa, Liquid	107.27
324.19 K, 9040 kPa, Liquid	104.9
324.19 K, 10510 kPa, Liquid	103.17
324.19 K, 11010 kPa, Liquid	102.91
324.21 K, 5030 kPa, Liquid	110.51
324.21 K, 9450 kPa, Liquid	104.56
324.21 K, 11610 kPa, Liquid	102.46
324.22 K, 12030 kPa, Liquid	102.24
325.23 K, 1300 kPa, Gas	79.4
325.26 K, 1210 kPa, Gas	77.2
325.57 K, 1110 kPa, Gas	75.5
333.86 K, 2520 kPa, Liquid	124.88
333.92 K, 3010 kPa, Liquid	123.2
333.97 K, 5000 kPa, Liquid	117.16
333.97 K, 5500 kPa, Liquid	115.91
333.98 K, 5990 kPa, Liquid	114.8
333.99 K, 3510 kPa, Liquid	121.92
333.99 K, 4620 kPa, Liquid	118.27
333.99 K, 9500 kPa, Liquid	108.39
334 K, 4070 kPa, Liquid	120.01
334 K, 6530 kPa, Liquid	113.92
334.01 K, 10060 kPa, Liquid	108
334.02 K, 7050 kPa, Liquid	112.82
334.03 K, 8960 kPa, Liquid	109.42
334.03 K, 10520 kPa, Liquid	107.4
334.03 K, 11040 kPa, Liquid	107.08
334.05 K, 7490 kPa, Liquid	112.09
334.05 K, 8350 kPa, Liquid	110.82
334.05 K, 11630 kPa, Liquid	106.69
334.07 K, 12280 kPa, Liquid	106.31
334.76 K, 1410 kPa, Gas	77.78
335.09 K, 1600 kPa, Gas	82.79
335.23 K, 1510 kPa, Gas	80.11
335.46 K, 1300 kPa, Gas	75.24
335.63 K, 1210 kPa, Gas	74.2
343.4 K, 2840 kPa, Liquid	135.92
343.44 K, 3020 kPa, Liquid	134.94
343.77 K, 3540 kPa, Liquid	133.68
343.84 K, 4040 kPa, Liquid	131.08
343.88 K, 4520 kPa, Liquid	129.17
343.89 K, 5970 kPa, Liquid	123.05
343.9 K, 6530 kPa, Liquid	121.47
343.9 K, 7040 kPa, Liquid	120.17
343.9 K, 7540 kPa, Liquid	118.86
343.91 K, 5560 kPa, Liquid	124.9
343.91 K, 8070 kPa, Liquid	117.76
343.91 K, 8530 kPa, Liquid	116.74
343.92 K, 9010 kPa, Liquid	115.78
343.92 K, 9480 kPa, Liquid	114.8
343.92 K, 10010 kPa, Liquid	113.86
343.92 K, 10500 kPa, Liquid	112.99
343.93 K, 5100 kPa, Liquid	126.98
343.93 K, 11010 kPa, Liquid	112.27
343.96 K, 11570 kPa, Liquid	111.8
343.99 K, 12130 kPa, Liquid	111.22
344.36 K, 2000 kPa, Gas	89.95
345.01 K, 1810 kPa, Gas	82.66
345.19 K, 1220 kPa, Gas	72.72
345.35 K, 1600 kPa, Gas	77.74
345.47 K, 1420 kPa, Gas	74.9
353.68 K, 3480 kPa, Liquid	157.19
353.77 K, 8480 kPa, Liquid	121.76
353.78 K, 7950 kPa, Liquid	123.23
353.79 K, 6470 kPa, Liquid	128.91
353.79 K, 9090 kPa, Liquid	120.56
353.79 K, 10010 kPa, Liquid	118.76
353.8 K, 7530 kPa, Liquid	124.7
353.8 K, 9570 kPa, Liquid	119.62
353.8 K, 10480 kPa, Liquid	117.97
353.81 K, 6000 kPa, Liquid	131.53
353.81 K, 7130 kPa, Liquid	126.37
353.81 K, 11040 kPa, Liquid	117.35
353.82 K, 4030 kPa, Liquid	149.07
353.82 K, 5500 kPa, Liquid	134.57
353.84 K, 11540 kPa, Liquid	116.89
353.85 K, 5030 kPa, Liquid	138.32
353.86 K, 4500 kPa, Liquid	143.57
353.87 K, 11950 kPa, Liquid	116.16
355.25 K, 1910 kPa, Gas	81.51
355.27 K, 1520 kPa, Gas	75.85
355.27 K, 1700 kPa, Gas	78.58
355.27 K, 2110 kPa, Gas	85.11
355.28 K, 1310 kPa, Gas	73.7
355.3 K, 1130 kPa, Gas	71.61
355.31 K, 2610 kPa, Gas	99.72
355.33 K, 2820 kPa, Gas	109.04
355.48 K, 2360 kPa, Gas	90.82
355.52 K, 2590 kPa, Gas	97.73
363.33 K, 4330 kPa, Liquid	193.61
363.59 K, 7000 kPa, Liquid	139.97
363.59 K, 7500 kPa, Liquid	136.22
363.59 K, 8480 kPa, Liquid	130.33
363.6 K, 8030 kPa, Liquid	132.67
363.61 K, 9520 kPa, Liquid	125.95
363.61 K, 10000 kPa, Liquid	123.85
363.62 K, 6030 kPa, Liquid	150.44
363.62 K, 6520 kPa, Liquid	144.76
363.63 K, 8990 kPa, Liquid	128.17
363.66 K, 5490 kPa, Liquid	159.6
363.66 K, 10580 kPa, Liquid	122.57
363.68 K, 11000 kPa, Liquid	121.51
363.7 K, 4990 kPa, Liquid	171.83
363.71 K, 11510 kPa, Liquid	120.57
363.75 K, 12010 kPa, Liquid	119.55
365.28 K, 2190 kPa, Gas	82.06
365.28 K, 2400 kPa, Gas	85.63
365.29 K, 2010 kPa, Gas	79.35
365.3 K, 1810 kPa, Gas	76.69
365.33 K, 2600 kPa, Gas	89.76
365.34 K, 1600 kPa, Gas	74.44
365.39 K, 1200 kPa, Gas	71.16
365.39 K, 1410 kPa, Gas	72.82
365.42 K, 2800 kPa, Gas	94.54
365.46 K, 2990 kPa, Gas	99.69
365.54 K, 3400 kPa, Gas	118.14
365.75 K, 3200 kPa, Gas	107.31
373.37 K, 5540 kPa, Liquid	218.6
373.47 K, 9520 kPa, Liquid	134.79
373.48 K, 9010 kPa, Liquid	138.16
373.53 K, 8500 kPa, Liquid	142.08
373.53 K, 9990 kPa, Liquid	132.61
373.53 K, 11480 kPa, Liquid	126.08
373.54 K, 8000 kPa, Liquid	146.44
373.55 K, 6030 kPa, Liquid	187.59
373.56 K, 6990 kPa, Liquid	159.83
373.56 K, 10990 kPa, Liquid	128.66
373.57 K, 7500 kPa, Liquid	151.89
373.58 K, 6510 kPa, Liquid	170.77
373.58 K, 10550 kPa, Liquid	130.44
383.1 K, 6560 kPa, Liquid	239.16
383.57 K, 7020 kPa, Liquid	204.1
383.71 K, 10040 kPa, Liquid	140.17
383.71 K, 10550 kPa, Liquid	136.16
383.74 K, 9490 kPa, Liquid	145.93
383.74 K, 11270 kPa, Liquid	132.02
383.78 K, 7490 kPa, Liquid	182.33
383.81 K, 9090 kPa, Liquid	151.38
383.86 K, 7980 kPa, Liquid	172.97
383.87 K, 8520 kPa, Liquid	160.93
383.88 K, 12030 kPa, Liquid	129.42

O [water]
Liquid
Conditions	molar heat capacity at constant pressure [J/K/mol]
304.24 K, 100 kPa	75.43
304.28 K, 3030 kPa	74.86
304.36 K, 11970 kPa	74.97
304.37 K, 6180 kPa	75.16
304.4 K, 9010 kPa	74.98
323.09 K, 90 kPa	75.69
323.13 K, 3180 kPa	75.16
323.15 K, 6040 kPa	74.94
323.17 K, 9000 kPa	74.7
323.19 K, 11970 kPa	74.58
371.11 K, 990 kPa	76.21
371.19 K, 2980 kPa	75.91
371.24 K, 5990 kPa	75.65
371.27 K, 9030 kPa	75.39
371.3 K, 12040 kPa	75.11
424.19 K, 12070 kPa	77.23
424.24 K, 1390 kPa	77.92
424.29 K, 3030 kPa	77.82
424.35 K, 6180 kPa	76.99
424.43 K, 9080 kPa	76.79
424.52 K, 15080 kPa	76.51
473.34 K, 2710 kPa	80.78
473.45 K, 6220 kPa	80.48
473.51 K, 9230 kPa	80.25
473.56 K, 12190 kPa	80.08
473.61 K, 15070 kPa	79.73
526 K, 6030 kPa	87.65
526.12 K, 9260 kPa	87.01
526.17 K, 12250 kPa	86.6
526.23 K, 15120 kPa	86.16
577.06 K, 9960 kPa	104.34
577.11 K, 11800 kPa	102.67
577.14 K, 13510 kPa	102.15
577.18 K, 15110 kPa	100.84
